# What was measured:
# [1] = system: HCV genotype 1a (HCV-1a) replicon cells; experiment: HCV genotype 1a replicon luciferase assay (EC50); type: cell-based, hepatitis C virus genotype 1a (H77 clone); conditions: Hepatitis C virus, 72 h, 3 days, luciferase (Bright-Glo)
# Procedure, shortened: (§1)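 Replicon cells, 8000/well, 3 d, 37 °C; 6-pt 5-fold dilution from 100, 10 or 1 nM, 0.5% DMSO, duplicates; Bright-Glo luminescence → EC50 (nonlinear fit). 1a = H77 K1691R/K2040R/S2204I; 1b = Con1 E1202G/T1280I/K1846T.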
# [2] = system: HCV genotype 1b (HCV-1b) replicon cells; experiment: HCV genotype 1b replicon luciferase assay (EC50); type: cell-based, hepatitis C virus genotype 1b (Con1 clone); conditions: Hepatitis C virus, 72 h, 3 days, luciferase (Bright-Glo)
# Procedure, shortened: as §1
# [3] = Cell Titer-fluor cell activity assay in HCV-1b replicon cells (CC50); type: cell-based
# Procedure, shortened: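 CC50 derived by nonlinear fitting of inhibition % from Cell Titer-fluor signal (405/515 nm, 30 min). Cells: genotype 1b Con1 replicon carrying E1202G, T1280I, K1846T, seeded 8000/well with compound for 3 days, 37 °C, 0.5% DMSO; 6 points, 5-fold dilution, top 100, 10 or 1 nM, duplicates.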
Compound,EC50 [1] [nM],EC50 [2] [nM],CC50 at 3 days [3] [nM]
COC(=O)N[C@H](C(=O)N1CCC[C@H]1c1ncc(-c2ccc(-c3ccc(-c4cnc([C@@H]5[C@H]6CC[C@H](C6)[C@H]5C(=O)N[C@H](c5cccnc5)C(C)C)[nH]4)cc3)cc2)[nH]1)C(C)C [AA_233_ENDOA2_A],0.101 to 1,0.001 to 0.1,> 1
COC(=O)N[C@H](C(=O)N1CCC[C@H]1c1ncc(-c2ccc(-c3ccc(-c4cnc(C5C6CCC(C6)[C@@H]5C(=O)N(NC(=O)OC)C(C)C)[nH]4)cc3)c(OC)c2)[nH]1)C(C)C (stereo partly drawn) [AA_190_A],10 to 100,0.101 to 1,> 1
COC(=O)N[C@H](C(=O)N1CCC[C@H]1c1ncc(-c2ccc(-c3ccc(-c4cnc([C@H]5C6CCC(C6)[C@@H]5C(=O)NCc5cnccn5)[nH]4)cc3)cc2)[nH]1)C(C)C (stereo partly drawn) [AA_206_A],0.101 to 1,0.001 to 0.1,> 1
COC(=O)N[C@H](C(=O)N1CCC[C@H]1c1ncc(-c2ccc(-c3ccc(-c4cnc([C@@H]5[C@H]6CC[C@H](C6)[C@H]5C(=O)N[C@H](C)c5cccnc5)[nH]4)cc3)cc2)[nH]1)C(C)C [AA_204_ENDOA2_B],1 to 10,0.001 to 0.1,> 1
COC(=O)N[C@H](C(=O)N1CCCC1c1ncc(-c2ccc(-c3ccc(-c4[nH]c([C@@H]5CCCN5C(=O)[C@@H](NC(=O)OC)C(C)C)c5c4CCC5)cc3)cc2)[nH]1)C(C)C (stereo partly drawn) [AG_014_A],1 to 10,0.001 to 0.1,> 10
COC(=O)N[C@H](C(=O)N1CCC[C@H]1c1ncc(-c2ccc(-c3ccc(-c4cnc(C5C6CCC(C6)[C@H]5C(=O)NCc5cnccn5)[nH]4)cc3)cc2)[nH]1)[C@@H](C)OC (stereo partly drawn) [AA_268_B],1 to 10,0.001 to 0.1,> 1
COC(=O)N[C@H](C(=O)N1CCC[C@H]1c1ncc(-c2ccc(-c3ccc(-c4ccc([C@H]5CCCN5C(=O)N(NC(=O)OC)C(C)C)[nH]4)cc3)cc2)[nH]1)C(C)C [AG_081_B],10 to 100,0.001 to 0.1,> 1
COC(=O)N[C@H](C(=O)N1CCC[C@H]1c1ncc(-c2ccc(-c3ccc(-c4cnc(C5C6CCC(C6)[C@H]5C(=O)NCc5ccc(OC)nc5)[nH]4)cc3)cc2)[nH]1)[C@@H](C)OC (stereo partly drawn) [AA_223_A],10 to 100,0.101 to 1,> 1
COC(=O)N[C@H](C(=O)N1CCC[C@H]1c1ncc(-c2ccc(-c3ccc(-c4cnc([C@@H]5C6CCC(C6)[C@H]5C(=O)NCc5ccc(OC)nc5)[nH]4)cc3)cc2)[nH]1)C(C)C (stereo partly drawn) [AA_200_B],1 to 10,0.001 to 0.1,> 1
COC(=O)NC(C(=O)N1CCC[C@H]1c1ncc(-c2ccc(-c3ccc(-c4cnc(C5CCCC[C@@H]5C(=O)N(NC(=O)OC)C(C)C)[nH]4)cc3)cc2)[nH]1)C1CCOCC1 (stereo partly drawn) [AA_109],10 to 100,0.101 to 1,> 100
COC(=O)N[C@H](C(=O)N1CCC[C@H]1c1ncc(-c2ccc(-c3ccc(-c4cnc([C@@H]5C6CCC(C6)[C@H]5C(=O)NCc5ccc(F)nc5)[nH]4)cc3)cc2)[nH]1)C(C)C (stereo partly drawn) [AA_214_B],10 to 100,0.001 to 0.1,> 1
COC(=O)N[C@H](C(=O)N1CCC[C@H]1c1ncc(-c2ccc(-c3ccc(-c4cnc(C5CCCC[C@@H]5C(=O)N(NC(=O)OC)C(C)C)[nH]4)cc3F)cc2)[nH]1)C(C)C (stereo partly drawn) [AA_117],10 to 100,0.101 to 1,> 10
COC(=O)N[C@H](C(=O)N1CCC[C@H]1c1ncc(-c2ccc(-c3ccc(-c4cnc([C@@H]5C6CCC(C6)[C@H]5C(=O)NCc5cccnc5F)[nH]4)cc3)cc2)[nH]1)C(C)C (stereo partly drawn) [AA_224_B],1 to 10,0.001 to 0.1,> 1
COC(=O)N[C@H](C(=O)N1CCC[C@H]1c1ncc(-c2ccc(-c3ccc(-c4cnc(C5C6CCC(C6)[C@@H]5C(=O)N(C)c5ccccn5)[nH]4)cc3)cc2)[nH]1)[C@@H](C)OC (stereo partly drawn) [AA_247_A],0.101 to 1,0.001 to 0.1,> 1
COC(=O)N[C@H](C(=O)N1CCC[C@H]1c1ncc(-c2ccc(-c3ccc(-c4[nH]c([C@H]5CCCN5C(=O)[C@@H](NC(=O)OC)[C@@H](C)OC)c5c4CCCC5)cc3)cc2)[nH]1)C(C)C [AG_078_B],10 to 100,0.101 to 1,> 5
COC(=O)N[C@H](C(=O)N1CCC[C@H]1c1ncc(-c2ccc(-c3ccc(-c4cnc(C5C6CCC(C6)[C@H]5C(=O)NCc5cccnc5)[nH]4)cc3)cc2)[nH]1)[C@@H](C)OC (stereo partly drawn) [AA_179_A],1 to 10,0.001 to 0.1,> 1
COC(=O)N[C@H](C(=O)N1CCC[C@H]1c1ccc(-c2ccc(-c3ccc(-c4cnc([C@@H]5CC6(CC6)CN5C(=O)[C@@H](NC(=O)OC)[C@@H](C)OC)[nH]4)cc3)cc2)[nH]1)[C@@H](C)OC [AG_115],0.101 to 1,0.001 to 0.1,> 1

Compound,EC50 [1] [nM],EC50 [2] [nM],CC50 at 3 days [3] [nM]
COC[C@H](NC(=O)OC)C(=O)N1CCC[C@H]1c1ccc(-c2ccc(-c3ccc(-c4cnc([C@@H]5CCCN5C(=O)[C@@H](NC(=O)OC)[C@@H](C)O)[nH]4)cc3)cc2)[nH]1 [AG_108],0.101 to 1,0.001 to 0.1,> 1
COC(=O)N[C@H](C(=O)N1CCC[C@H]1c1ncc(-c2ccc(-c3ccc(-c4cnc(C5C6CCC(C6)[C@@H]5C(=O)NCc5ccncc5)[nH]4)cc3)cc2)[nH]1)[C@@H](C)OC (stereo partly drawn) [AA_248_B],10 to 100,0.101 to 1,> 1
COC(=O)N[C@H](C(=O)N1CCC[C@H]1c1ncc(-c2ccc(-c3ccc(-c4cnc(C5C6CCC(C6)[C@H]5C(=O)NCCc5ccncc5)[nH]4)cc3)cc2)[nH]1)[C@@H](C)OC (stereo partly drawn) [AA_266_B],10 to 100,0.101 to 1,> 1
COC(=O)N[C@H](C(=O)N1CCC[C@H]1c1ncc(-c2ccc(-c3ccc(-c4cnc(C5C6CCC(C6)[C@H]5C(=O)N[C@@H](C)c5ccccc5)[nH]4)cc3)cc2)[nH]1)[C@@H](C)OC (stereo partly drawn) [AA_262_B],0.101 to 1,0.001 to 0.1,> 1
COC(=O)N[C@H](C(=O)N1CCC[C@H]1c1ncc(-c2ccc(-c3ccc(-c4cnc([C@H]5C6CCC(C6)[C@@H]5C(=O)NCc5ccc(OC)nc5)[nH]4)cc3)cc2)[nH]1)C(C)C (stereo partly drawn) [AA_200_A],1 to 10,0.001 to 0.1,> 1
COC(=O)N[C@H](C(=O)N1CCC[C@H]1c1ncc(-c2ccc(-c3ccc(-c4cnc(C5CCCC[C@@H]5C(=O)N(NC(=O)OC)C(C)C)[nH]4)cc3C(F)(F)F)cc2)[nH]1)C(C)C (stereo partly drawn) [AA_127],10 to 100,0.101 to 1,> 10
COC(=O)N[C@H](C(=O)N1CCC[C@H]1c1ncc(-c2ccc(-c3ccc(-c4cnc([C@H]5C6CCC(C6)[C@@H]5C(=O)NCc5ccc(F)nc5)[nH]4)cc3)cc2)[nH]1)C(C)C (stereo partly drawn) [AA_214_A],1 to 10,0.001 to 0.1,> 1
COC(=O)N[C@H](C(=O)N1CCC[C@H]1c1ccc(-c2ccc(-c3ccc(-c4cnc([C@@H]5CCCN5C(=O)[C@@H](NC(=O)OC)[C@@H](C)OC)[nH]4)cc3)cc2)[nH]1)C(C)C [AG_061_A],0.101 to 1,0.001 to 0.1,> 1
O=C(NCc1cccnc1)[C@H]1C2CCC(C2)C1c1ncc(-c2ccc(-c3ccc(-c4cnc([C@@H]5C6CCC(C6)[C@H]5C(=O)NCc5cccnc5)[nH]4)cc3)cc2)[nH]1 (stereo partly drawn) [AA_180],10 to 100,1 to 10,> 10
COC(=O)N[C@H](C(=O)N1CCC[C@H]1c1ncc(-c2ccc(-c3ccc(-c4[nH]c([C@H]5CCCN5C(=O)[C@@H](NC(=O)OC)C(C)OC)c5c4COC5)cc3)cc2)[nH]1)C(C)C (stereo partly drawn) [AG_079_B],1 to 10,0.101 to 1,> 5
COC(=O)N[C@H](C(=O)N1CCC[C@H]1c1[nH]c(-c2ccc(-c3ccc(-c4cnc([C@@H]5CCCN5C(=O)[C@@H](NC(=O)OC)C5CC5)[nH]4)cc3)cc2)c2c1CCC2)C(C)C [AG_086],10 to 100,0.001 to 0.1,> 1
CC[C@H](C)[C@H](NC(=O)OC)C(=O)N1CCC[C@H]1c1ncc(-c2ccc(-c3ccc(-c4ccc([C@@H]5CCCN5C(=O)[C@@H](NC(=O)OC)C(C)C)[nH]4)cc3)cc2)[nH]1 [AG_107],1 to 10,0.001 to 0.1,> 1
COC(=O)N[C@H](C(=O)N1CCC[C@H]1c1ncc(-c2ccc(-c3ccc(-c4cnc([C@@H]5C6CCC(C6)[C@H]5C(=O)N(C)c5ccccn5)[nH]4)cc3)cc2)[nH]1)C(C)C (stereo partly drawn) [AA_195_B],1 to 10,0.001 to 0.1,> 1
COC(=O)N[C@H](C(=O)N1CCC[C@H]1c1cnc(-c2ccc(-c3ccc(-c4ncc(C5C6CCC(C6)[C@@H]5C(=O)N(NC(=O)OC)C(C)C)[nH]4)cc3)cc2C)[nH]1)C(C)C (stereo partly drawn) [AA_169_B],10 to 100,0.001 to 0.1,> 5
COC(=O)N[C@H](C(=O)N1CCC[C@H]1c1ncc(-c2ccc(-c3ccc(-c4cnc([C@H]5C6CCC(C6)[C@@H]5C(=O)NCCc5ccccn5)[nH]4)cc3)cc2)[nH]1)C(C)C (stereo partly drawn) [AA_202],1 to 10,0.001 to 0.1,> 1
COC(=O)N[C@H](C(=O)N1CCC[C@H]1c1ncc(-c2ccc3c(c2)C(F)(F)c2cc(-c4cnc(C5C6CCC(C6)[C@H]5C(=O)NCc5cccnc5)[nH]4)ccc2-3)[nH]1)C(C)C (stereo partly drawn) [AA_238],1 to 10,0.001 to 0.1,> 1

# — patent publication US10160771B2, “Hepatitis C virus inhibitors and uses thereof in preparation of drugs” (priority 2014, dated 2018)
